# Article PMC4844587, “PET imaging of cyclooxygenase-2 (COX-2) in a pre-clinical colorectal cancer model” (EJNMMI Research, 2016)
# Assays:
# [1] = test system: HCA-7 tumors; assay: Biodistribution in HCA-7 tumor-bearing mice; conditions: 60 min p.i.; for Biodistribution: Tumor/blood / Biodistribution: Tumor/muscle: ratio, n = 4; for Blocking of [^18F]Pyricoxib tumor uptake (biodistribution studies): celecoxib 100 mg/kg (2 mg per mouse) i.p., HCA-7 tumor
# Description: Animals were sacrificed at 60 min p.i. The organs and tissues of interest were rapidly excised, weighed, and the radioactivity was determined using the automatic gamma counter (see above). Radioactivity in the selected tissues and organs was calculated as percent injected dose per gram tissue (%ID/g). Data were analyzed as means ± standard deviation (mean ± SD) for n = 4 animals.
# [2] = test system: HCT-116 tumors; assay: PET imaging of HCT-116 tumor-bearing mice; format: in vivo, NIH-III nude mice; conditions: 2 h p.i., n = 3
# Description: Positron emission tomography (PET) and biodistribution experiments were carried out in HCA-7 and HCT-116 tumor-bearing NIH-III nude mice (Charles River Laboratories, Quebec, Canada). Female NIH-III nude mice were housed under standard conditions with free access to standard food and tap water. HCA-7 and HCT-116 cells (5 × 10^6 cells in 100 μL of PBS) were injected into the upper left flank of female NIH-III nude mice (20–24 g). After 14 to 21 days post-inoculation, HCA-7 and HCT-116 tumors reached sizes of approximately 0.6–0.9 cm^3 (0.78 ± 0.15 g, as determined during biodistribution experiments) which were suitable for all in vivo experiments.
# General anesthesia of HCA-7 tumor-bearing mice was induced with inhalation of isoflurane in 40 % oxygen/60 % nitrogen (gas flow = 1 mL/min), and mice were subsequently fixed in prone position. The body temperature was kept constant at 37 °C for the entire experiment. […] PET data was collected dynamically over 60 min for up to 4 h using an Inveon® PET/CT scanner (Siemens Preclinical Solutions, Knoxville, TN, USA). […] Mean standardized uptake values [SUVmean = (activity/mL tissue)/(injected activity/body weight), mL/g] were calculated for each region of interest (ROI) with a threshold defined at 50 % of radioactivity uptake. […] All semi-quantified PET data are presented as means ± SEM.
# [3] = Radiometabolite analysis and blood compartment distribution; format: in vivo, NIH-III nude mice
# Description: Blood samples from the tail vein (20–40 μL) were collected at 5, 30, 60, and 120 min p.i. Plasma was separated by centrifugation (5 min, 13,000×g) followed by plasma protein precipitation using ice-cold methanol (two parts per one part plasma) and centrifugation (5 min, 13,000×g). Supernatants were analyzed by radio thin-layer chromatography (radio-TLC). TLCs were developed in 1 % MeOH/CH2Cl2 and analyzed using a BAS-5000 reader.
# [4] = test system: HCA-7 tumors; assay: Dynamic PET imaging of HCA-7 tumor-bearing mice
# Description: Female NIH-III nude mice were housed under standard conditions with free access to standard food and tap water. HCA-7 and HCT-116 cells (5 × 10^6 cells in 100 μL of PBS) were injected into the upper left flank of female NIH-III nude mice (20–24 g). After 14 to 21 days post-inoculation, HCA-7 and HCT-116 tumors reached sizes of approximately 0.6–0.9 cm^3 (0.78 ± 0.15 g, as determined during biodistribution experiments) which were suitable for all in vivo experiments.
# General anesthesia of HCA-7 tumor-bearing mice was induced with inhalation of isoflurane in 40 % oxygen/60 % nitrogen (gas flow = 1 mL/min), and mice were subsequently fixed in prone position. The body temperature was kept constant at 37 °C for the entire experiment. […] PET data was collected dynamically over 60 min for up to 4 h using an Inveon® PET/CT scanner (Siemens Preclinical Solutions, Knoxville, TN, USA). For the initial 4-h dynamic PET experiments, 3.5 % HSA was added to the final injection solution, while all other experiments were done without addition of carrier protein HSA. Mean standardized uptake values [SUVmean = (activity/mL tissue)/(injected activity/body weight), mL/g] were calculated for each region of interest (ROI) with a threshold defined at 50 % of radioactivity uptake. The time-activity curves (TACs) were generated from dynamic PET scans. All semi-quantified PET data are presented as means ± SEM.
# A transmission scan for attenuation correction was not acquired. The radioactivity of the injection solution in a 0.5 mL syringe was determined with a dose calibrator (Atomlab^TM 300, Biodex Medical Systems, New York, U.S.A.). After the PET emission scan was started the radioactivity was injected with a delay of approximately 15 s. Data acquisition continued for 60 min in 3D list mode. The dynamic list mode data were sorted into sinograms with up to 54 time frames (10x2, 8x5, 6x10, 6x20, 8x60, 10x120, 6x300 s). The frames were reconstructed using maximum a posteriori (MAP) reconstruction modes. The pixel size was 0.085x0.085x0.12 cm, and the resolution in the center field of view was 1.8 mm. Correction for partial volume effects was not performed. The image files were further processed using the ROVER v2.0.51 software (ABX GmbH, Radeberg, Germany). Masks defining 3D regions of interest (ROI) were set and the ROIs were defined by thresholding.
# ROIs covered all visible tumor mass of the subcutaneous tumors, and the thresholds were defined by 50% of the maximum radioactivity uptake level for HCA-7 tumor in each animal.
# [5] = Lipophilicity; format: physicochemical
# [6] = test system: carbonic anhydrase (CA) enzyme family; conditions: cited from earlier work
# [7] = test system: COX-2; conditions: read-out: COX-2 inhibition IC50; cited from earlier work
# [8] = test system: HCA-7 cells
# Description: Blocking experiments were performed at 60 min. Radiotracer uptake was stopped by the addition of 1 mL of ice-cold PBS. Then, cells were washed two times with PBS and lysed in 0.4 mL of radioimmunoprecipitation assay buffer (RIPA buffer). Radioactivity of cell lysates was determined with a WIZARD2 Automatic gamma counter (Perkin Elmer; Waltham, MA, USA). Total protein concentration in the samples was determined by the bicinchoninic acid method (BCA; Pierce, Thermo Scientific 23227) using bovine serum albumin (800, 600, 400, 300, 200, 100, 50 μg/mL, blank) as protein standard. Cell uptake data are expressed as percent of measured radioactivity per 1 mg protein (%radioactivity/mg protein).
# [9] = + 2 mg celecoxib i.p. 60 min prior
structure (smiles),measurement,setting,value
"CS(=O)(=O)c1ccc(-c2cc(C(F)(F)F)nc(NCc3ccc([18F])cc3)n2)cc1 [[^18F]Pyricoxib, N-(4-[^18F]fluorobenzyl)-4-[4-(methylsulfonyl)phenyl]-6-(trifluoro-methyl)pyrimidin-2-amine]",Biodistribution: Blood,"[1]; control, n = 4, mean ± SD",0.65 ± 0.12 %ID/g
same,Biodistribution: Bone,"[1]; control, n = 4, mean ± SD",0.67 ± 0.19 %ID/g
same,Biodistribution: Brain,"[1]; control, n = 4, mean ± SD",1.74 ± 0.51 %ID/g
same,Biodistribution: Duodenum,"[1]; control, n = 4, mean ± SD",4.59 ± 0.73 %ID/g
same,Biodistribution: Fat,"[1]; control, n = 4, mean ± SD",12.67 ± 5.45 %ID/g
same,Biodistribution: HCA-7 tumor,"[1]; control, n = 4, mean ± SD",2.12 ± 0.53 %ID/g
same,Biodistribution: Heart,"[1]; control, n = 4, mean ± SD",2.52 ± 0.54 %ID/g
same,Biodistribution: Intestine (large),"[1]; control, n = 4, mean ± SD",4.21 ± 1.74 %ID/g
same,Biodistribution: Intestine (small),"[1]; control, n = 4, mean ± SD",8.08 ± 2.33 %ID/g
same,Biodistribution: Kidneys,"[1]; control, n = 4, mean ± SD",4.38 ± 1.01 %ID/g
same,Biodistribution: Liver,"[1]; control, n = 4, mean ± SD",17.13 ± 1.22 %ID/g
same,Biodistribution: Lung,"[1]; control, n = 4, mean ± SD",3.75 ± 0.66 %ID/g
same,Biodistribution: Muscle,"[1]; control, n = 4, mean ± SD",1.42 ± 0.54 %ID/g
same,Biodistribution: Ovaries,"[1]; control, n = 4, mean ± SD",8.22 ± 1.27 %ID/g
same,Biodistribution: Pancreas,"[1]; control, n = 4, mean ± SD",3.92 ± 1.39 %ID/g
same,Biodistribution: Spleen,"[1]; control, n = 4, mean ± SD",1.24 ± 0.33 %ID/g
same,Biodistribution: Stomach,"[1]; control, n = 4, mean ± SD",1.08 ± 0.29 %ID/g
same,Biodistribution: Tumor/blood,[1]; [9],1.09 ± 0.41
same,Biodistribution: Tumor/muscle,[1]; [9],0.70 ± 0.19
same,Biodistribution: Tumor/blood,[1]; control,3.39 ± 0.55
same,Biodistribution: Tumor/muscle,[1]; control,1.81 ± 1.04
same,SUV2h tumor,[2],0.93 ± 0.06
same,Blood compartment distribution: blood cells,[3]; 5 min,68%
same,Blood compartment distribution: plasma proteins,[3]; 5 min,2%
same,Blood compartment distribution: plasma supernatant,[3]; 5 min,30%
same,Detectable radioactivity in plasma fraction,[3]; 5 min p.i.,30%
same,Blood compartment distribution: blood cells,[3]; 30 min,54%
same,Blood compartment distribution: plasma proteins,[3]; 30 min,4%
same,Blood compartment distribution: plasma supernatant,[3]; 30 min,42%
same,Blood compartment distribution: blood cells,[3]; 60 min,43%
same,Blood compartment distribution: plasma proteins,[3]; 60 min,7%
same,Blood compartment distribution: plasma supernatant,[3]; 60 min,50%
same,Detectable radioactivity in plasma fraction,[3]; 2 h p.i.,50%
same,Percentage of intact [^18F]Pyricoxib,"[3]; blood, 5 min p.i., mice",98%
same,Mean SUV HCA-7 tumor,"[4]; 60 min p.i., control animals, no HSA, n = 6",0.75 ± 0.12
same,SUV HCA-7 tumor,"[4]; 60 min p.i., pre-treated with celecoxib 2 mg i.p. 60 min prior, n = 6",0.57 ± 0.20
same,SUV2h tumor,"[4]; HCA-7 tumor, 2 h p.i., n = 3",1.09 ± 0.13
same,SUV4h tumor,"[4]; HCA-7 tumor, 4 h p.i., […] HSA added, n = 7",1.19 ± 0.13
same,SUV muscle,"[4]; muscle as reference tissue, 60 min p.i., no HSA, n = 6",0.50 ± 0.11
same,SUV60min muscle,"[4]; muscle, 60 min p.i., […] HSA added",0.61 ± 0.14
same,SUV4h muscle,"[4]; muscle, 4 h p.i., […] HSA added, n = 7",0.53 ± 0.11
same,logP,[5],3.37
"Cc1ccc(-c2cc(C(F)(F)F)nn2-c2ccc(S(N)(=O)=O)cc2)cc1 [celecoxib, reference compound]",Blocking of [^18F]Pyricoxib tumor uptake (biodistribution studies),[1],50%
same,Blocking of [^18F]Pyricoxib tumor uptake (biodistribution studies),[1]; listed as Celecoxib,51%
same,Affinity for carbonic anhydrase,[6],low nanomolar affinity
"CS(=O)(=O)c1ccc(C2=C(c3ccccc3)C(=O)OC2)cc1 [rofecoxib, 4-(4′-methylsulfonylphenyl)-3-phenyl-2-(5H)-furanone]",IC50,[7],18 to 26 nM
same,Blocking of [^18F]Pyricoxib uptake,[8],blocked uptake of [^18F]Pyricoxib in HCA-7 cells in a concentration-dependent manner
